pEC50: −log10 of the molar value.
Tests used:
HEBP1_predicted mRNA = test: HEBP1_predicted expression in cardiac tissue of rats with chronic heart failure after myocardial infarction; type: in vivo; details: 10 mg/kg/day for 9 weeks, versus placebo, mRNA relative to GAPDH
Procedure: Rats were divided in three groups. One group was sham-operated (group 1), whereas in groups 2 and 3 chronic heart failure was induced by myocardial infarction. Only, the latter group was treated with AVE3085 (10 mg/(kg day)) for 9 weeks. Thereafter, mRNA expression (HEBP1 in comparison to GAPDH) was determined in heart tissue. Means±SD of 7 experiments are shown, * p<0.05 vs. sham operated.
In another context, an animal study was conducted, in which rats developed chronic heart failure after an induced myocardial infarction. From available RNA samples from cardiac tissue it was possible to determine the expression of HEBP1_predicted at the mRNA level. […]
Isolation of RNA from the cell types used was carried out using the RNeasy® mini-isolation method. […] The concentration and purity of the prepared RNA were determined using a NanoDrop® ND-1000 spectrophotometer (NanoDrop Technologies Inc., Wilmington, USA). In this, from a total volume of 2 μl, the absorption of the samples was measured at a wavelength of λ=260 nm (A260) for nucleic acids. Conversion of the measured absorption to the concentration of the RNA solution was carried out by means of the extinction coefficient of 40 ng×cm^−1×μl^−1 on the basis of the Lambert-Beer law. […] The RNA obtained was then diluted in the ratio 1:5 and either used immediately in a quantitative RT-PCR or stored at −80° C. for future use. […]

eNOS promoter [1] = test: eNOS-transcription test after siRNA transfection of EA.csr03 cells; type: cell-based, human
Procedure: For liposomal transfection of siRNA in endothelial cells, EA.hy926 or EA.csr03 cells were sown with a density of 50 000 cells per well in a volume of 100 μl growth medium in 96-well plates. After incubation for 24 h in an incubator, the cells were washed with sterile DPBS and were covered in each case with 100 μl/well of serum-free and antibiotic-free special medium Opti-MEM® I. Then the siRNAs (see below) used were preincubated with Lipofectamine™ 2000 in accordance with the manufacturer's instructions and finally 50 μl/well of the transfection mixture was added to the cells. Unless stated otherwise, the siRNAs were used at final concentrations of 100 nM. Per well, after previous optimization, 0.8 μl of Lipofectamine™ 2000 was used for transfection of the EA.hy926 cells, and 0.5 μl for the EA.csr03 cells. After the cells had been incubated in an incubator for 6 hours, the transfection medium was replaced with normal growth medium and the next experimental steps were carried out in the time frame of 24-72 hours after transfection. Primary HUVECs were sown at 100 000 cells per well in Collagen I-coated 6-well plates and were cultivated in normal growth medium up to 60-70% confluence. Prior to transfection, the cells were washed with sterile DPBS and covered in each case with 800 μl/well of serum-free and antibiotic-free special medium Opti-MEM® I. 6 μl Lipofectin® and siRNA at a final concentration of 100 nM were used per well. […]
The survey of the efficiencies of different siRNAs to the target proteins were tested. The respective residual mRNA was determined by quantitative RT-PCR, 24 hours after transfection of human endothelial cells (EA.hy926/EA.csr03). […] After cell lysis, the luciferase activity and the total cellular protein content were determined.
For transcription test for eNOS promoter activation, 20 000 cells per well of the reporter cell line EA.csr03 were sown in a white 96-well cell culture plate. […] The light units released were measured in the Genios microplate reader from Tecan Deutschland (Crailsheim, Germany). […]

eNOS promoter [2] = test: eNOS-transcription test (eNOS-promoter luciferase reporter cell line EA.csr03); type: cell-based; details: Homo sapiens; EA.csr03 cells, nonlinear regression; read-out: EC50 in the eNOS-transcription test
Procedure: The EA.csr03 cells are cells of a stable eNOS-promoter luciferase cell line. It was obtained by transfection of EA.hy926 cells with a firefly luciferase reporter construct, with a 3.5 kb fragment of the eNOS-promoter added. Cultivation of these cells was carried out with IMDM with GlutaMAX™ I supplemented with 100 U/ml penicillin, 100 μg/ml streptomycin, 10% FCS and 0.4 mg/ml geneticin as selection antibiotic. The EA.hy926 cells are a stable human cell line, which was obtained by fusion of HUVEC with the human […] cell line A549. This cell line is characterized by expression of specific endothelial cell markers, e.g. the “van-Willebrand factor”. The cells used are an original culture of Cora Jean Edgell of passage 32. The cells were cultivated in IMDM with GlutaMAX™ I supplemented with 100 U/ml penicillin, 100 μg/ml streptomycin, HAT Hybri-Max™ medium additive (hypoxanthine, aminopterin and thymidine) and Biotect protective medium.
For transcription test for eNOS promoter activation, 20 000 cells per well of the reporter cell line EA.csr03 were sown in a white 96-well cell culture plate. After 24 hours, various dilutions of the substance in cell culture medium were prepared starting from DMSO stock solutions and were preincubated for 10 min at 37° C. on a water bath. Then these incubation media (100 μl/well) were added to the cells. After incubation for 18 hours, the cells were washed twice with DPBS (100 μl/well) and luciferase lysis buffer (50 μl/well) was added. After 10 min, the solubilized luciferase-substrate luciferin (100 μl/well) was added to the cell lysates. During the luciferase-catalyzed oxidation of luciferin to oxyluciferin there is release of chemiluminescence. […] The light units released were measured in the Genios microplate reader from Tecan Deutschland (Crailsheim, Germany).

O=C(NC1Cc2ccccc2C1)c1ccc2c(c1)OC(F)(F)O2 [AVE3085] was tested, and the “influence of treatment on expression of HEBP1_predicted in heart” value (HEBP1_predicted mRNA) was “did not show any influence at all”, the “induction of the eNOS promoter versus DMSO-control, HEBP1 switched off using siHEBP1 25” value (eNOS promoter [1]; AVE3085 5 μM, 18 h, siHEBP1 25) was 1.6 factor and the “induction of the eNOS promoter versus DMSO-control, siLV2-treated control cells” value (eNOS promoter [1]; AVE3085 5 μM, 18 h, siLV2-control) was 2.4 factor. For the same compound, the “reduction of eNOS-promoter activation by AVE3085 after switching-off of HEBP1 by siRNA versus siLV2-control” value (eNOS promoter [1]; HEBP1 siRNA) was 64% and the pEC50 (eNOS promoter [2]) was 6.40.

Source: patent US8652785B2, “Method of screening a modulator of endothelial NO synthase comprising the use of heme binding protein 1” (Sanofi, priority 2008, dated 2014)
